Experimental data as given in US20040071656A1, “Modulation of heat-shock-protein-based immunotherapies” (priority 2001, published 2004).
No end group written: not given here. *: point of attachment. FITC = O=C1OC2(c3ccc(O)cc3Oc3cc(O)ccc32)c2ccc(NC(=S)*)cc21

Key:
[1] = target: T1, exoplasmic domain of human CD40 (GST-CD40) (Homo sapiens, UniProt P25942); assay: GST-CD40 binding and competition assay with recombinant Hsp70 and its domains
T1 construct: The cDNA for the exoplasmic domain of CD40 (amino acids 20-212); made in house; host or cells: E. coli, pGEX-2T
Method: For binding assays with recombinant Hsp70 and its domains, 3 μM His6-Hsp70 or its His6-tagged domains were incubated with 2 mM ATP, 2 mM ADP or 2 mM ADP and 28 μM peptide C in 50 μl binding buffer (10 mM MOPS/KOH, pH 7.2, 150 mM KCl and 3 mM MgCl2) for 30 min at 37° C. In competition experiments binding was probed with either a 10-fold excess of Hsp70, the two domains, or DnaK, or with a 5-fold excess of Hip or Bag 1 for 10 min at 0° C. To this end, Hsp70, N70, C70 and DnaK were preincubated with ADP, ATP and peptide C as described above. For comparison of CD40 binding of Hsp70 and its N-terminal domain, Hsp70 was preincubated in the presence or absence (mock treatment) of a 30-fold molar excess of peptide C. 3 μM of GST or GST-CD40 was added to the samples and incubated for 20 min at 16° C. For titration of peptide C, 5- to 50-fold excess of peptide C (15-150 μM) was added to the preincubation of Hsp70. Thereafter the samples were combined with 20 μl of 1% BSA-treated Glutathione Sepharose 4 Fast Flow and incubated in the presence of 2 mM DTT for another 20 min at 16° C. Unbound proteins were removed by washing the beads three times with 1 ml PBS, and immobilized proteins eluted with 30 μl elution buffer for 20 min at 22° C. 10 μl of the eluates were subjected to SDS-PAGE and analyzed by immunoblotting using a Penta-His-antibody (Quiagen). Blot signals were quantified by Quantity One (Biorad).
Details for FIG. 3. Binding of Hsp70 to CD40 is direct and depends on ADP. A. Hela-cell lysates were incubated with GST (control), or GST-CD40 in the amounts indicated. Thereafter samples were affinity purified on glutathione-Sepharose as outlined in Experimental Procedures, subjected to SDS-PAGE and analyzed by immunoblotting with antibodies directed against Hsc70 and Hsp70 (upper lanes), and against Hsp90 (lower lanes). B. Human recombinant His6-tagged Hsp70 was incubated with ATP, ADP, or an excess of peptide C, followed by addition of GST-CD40 or GST alone. After affinity purification samples were analyzed by immunoblotting as described in A, using antibodies directed against the His6-tag. C. Recombinant human His6-tagged Hsp70 was incubated with peptide C, either in the presence or absence of ADP. The reactions were then incubated with ANA1-cell lysates as described in Experimental Procedures. Protein bound to Hsp70 was analyzed by affinity purification on Ni-NTA-agarose and immunoblotting with antibodies directed against CD40.
Details for FIG. 4. Hsp70 binding to CD40 is mediated by the N-terminal ATPase domain and is competed by Hip. A. Human His6-tagged Hsp70, its N- or C-terminal domains, or recombinant bacterial DnaK was incubated either with GST-CD40, or with GST. B. Recombinant DnaK was incubated with ATP, ADP, or an excess of peptide C, followed by addition of GST-CD40 or GST alone. C. His6-tagged N-terminal domain of Hsp70 (N70) was incubated in the presence of ATP or ADP, followed by incubation with a 10-fold molar excess of Hsp70 in the presence of ADP or ATP. D: Recombinant human His6-tagged Hsp70 protein was incubated with a 5-fold molar excess of either recombinant Hip protein or Bag-1, and with GST-CD40 or GST as a control. Bound protein was analyzed after affinity purification on glutathione-Sepharose by immunoblotting with an antibody directed against the N-terminal His6-tags or with an antibody directed against DnaK.
Details for FIG. 5. Peptide substrate stimulates Hsp70 binding to CD40. A. His6-tagged Hsp70 was incubated with increasing concentrations of peptide C as indicated in the Figure, and binding to GST-CD40 analyzed by immunoblotting with antibodies directed against the His6-tag. The lower panel is a quantitation of the data. B. Equivalent concentrations (3 μM) of His6-tagged Hsp70 (in the presence of a 30-fold molar excess of peptide C) or His6-tagged N70 was incubated with GST-CD40, and bound protein was analyzed as described above.

human CD40 [2] = target: T2, human CD40 (Homo sapiens, UniProt P25942); assay: Uptake of peptide C-FITC in HEK293T-CD40 cells, confocal microscopy; assay type: cell-based; conditions: 0.5 μM protein, 5 μM peptide C-FITC, ADP, 30 min 0° C. then 15 min 37° C.
T2 construct: CD40 full-length cDNA was cloned by PCR; expressed in transfected cells
Method: For experiments to study uptake of Hsp70/peptide C-FITC complex, HEK293T-CD40 and HEK293T-MCAT cells were seeded on collagen-coated cover slips 24 h prior to the experiment. For complex formation Hsp70, its N-terminal domain (N70) or its C-terminal domain (C70) were preincubated with a 10-fold molar excess of peptide C-FITC for 30 min at 37° C., as described above for the biotinylated proteins. HEK293T-CD40 and HEK293T-MCAT were incubated with 0.5 μM of Hsp70, N70 or C70, preincubated with 2 mM ADP and 5 μM peptide C-FITC, or 5 μM peptide C-FITC alone for 30 min on ice. Thereafter the cells were washed three times with medium, incubated for 15 min at 37° C., and fixed, embedded in Fluoromount-G and analyzed by confocal microscopy (LSM 510, Zeiss).
Next, the binding of Hsp70-peptide complex to CD40 was studied, which results in the uptake of peptide. To this end, HEK293T-CD40 cells and HE293T-MCAT cells (not expressing CD40) were incubated with a fluorescent (FITC) derivative of peptide C for 30 min at 0° C. in the presence of ADP, with or without Hsp70 or its two domains. After removal of excess material, the cells were incubated at 37° C. for 15 min, fixed and then analyzed by fluorescence microscopy. […] (FIG. 6B, panel 1). […] Neither did HEK293T-MCAT control cells give rise to a signal under any of the conditions tested (not shown). We conclude that the specific interaction of CD40 with Hsp70-peptide complex mediates the uptake of peptide.
Details for FIG. 6. Binding of Hsp70 complex to CD40-expressing HEK293T cells induces signaling via p38 and causes peptide uptake. A. HEK293T-cells, stably transfected with cDNA encoding human CD40 or the unrelated membrane protein murine cationic amino acid transporter (MCAT) were incubated for 20 min at 37° C. with CD40L or with Hsp70, C70, N70, bacterial DnaK either in the presence of ADP or AMPPNP, or buffer alone. Thereafter cells were washed, solubilized in SDS-sample buffer, and analyzed by immunoblotting with antibodies directed against phosphorylated (active) p38. Blots were also developed with an antibody against tubulin in order to control for equal loading. B. Cells were incubated at 0° C. for 30 min with recombinant human Hsp70, N70, or C70, all in the presence FITC-labeled peptide, or with the FITC-labeled peptide alone. Thereafter cells were washed, incubated for 15 min at 37° C., and processed for fluorescence microscopy. Upper left panel: Hsp70, upper right panel: FITC-labeled peptide alone, lower left panel: C70, lower right panel: N70. Only cells stably transfected with CD40 are shown. Cell boundaries are emphasized with broken lines.

human CD40 [3] = target: T2, human CD40; assay: Binding to Cos-7 cells transiently transfected with human CD40 cDNA, fluorescence microscopy; assay type: cell-based; conditions: 250 nM biotinylated protein, 30 min at 0° C.
Method: Cell culture and fluorescence microscopy. The murine macrophage cell line ANA1 was kindly provided by H. Wagner (Munich, Germany). ANA-1 cells were cultured in VLE-RPMI 1640 (Biochrom), supplemented with 10% FCS, 2 mM L-glutamine and antibiotics. For fluorescence microscopy, ANA1 cells were either stimulated with LPS (20 μg/ml, Sigma, Germany), or kept in an LPS-free medium (mock treatment) for 7 h. After stimulation, cells were harvested and incubated with 100 nM biotinylated Hsp70, biotinylated GST, or Hsp70/peptide C-biotin complex for 30 min at 0° C. in VLE-RPMI 1640. After incubation cells were processed for staining with streptavidin-TRITC (Sigma, Germany), fixed with paraformaldehyde and analyzed by fluorescence microscopy (Axiovert 35, Zeiss) as described (Sondermann et al., 2000). […] Twenty-four h post-transfection cells were incubated with 250 nM biotinylated Hsp70, biotinylated GST or Hsp70/peptide C-biotin complex for 30 min at 0° C. in DMEM, fixed, stained with streptavidin-TRITC (Sigma, Germany), and analyzed by fluorescence microscopy as described (Sondermann et al., 2000, idem). […] Stably transfected cell lines were analyzed by immunoblotting for CD40 expression using an anti-CD40 antibody (CSA180, Stressgen). […]
Mock-treated and LPS-stimulated ANA-1 cells were analyzed for their expression of CD40. […]

Hsp70 = conditions: Greene et al., 1995; read-out: affinity of peptide C for Hsp70; cited from earlier work
[4] = target: T1, exoplasmic domain of human CD40 (GST-CD40); assay: GST-CD40 pull-down of endogenous heat shock proteins from Hela cell lysate; assay type: binding; conditions: 80 or 400 pmol GST-CD40, immunoblot
Method: Binding assays with GST-CD40. For binding of endogenous Hsp70 and Hsc70 from Hela cell lysate, Hela cells were lysed as described above and centrifuged at 100,000 g at 4° C. for 1 h. 20 μl bed volume of Glutathione Sepharose 4 Fast Flow (Amersham Pharmacia) per sample were preincubated with 80 pmol or 400 pmol of GST or GST-CD40 fusion protein in 50 μl binding buffer. Unbound protein was removed by washing three times with PBS. The beads were treated with 1% BSA/PBS to avoid non-specific binding, and than incubated with 150 μl of Hela cell lysate in the presence of 2 mM DTT for 20 min at 16° C. […] 10 μl of the eluates was subjected to SDS-PAGE and analyzed by immunoblotting using an anti-Hsc/Hsp70 antibody and an anti-Hsp90: antibody (SPA822 and SPA835, Stressgen). […]
Details for FIG. 3. […] Thereafter samples were affinity purified on glutathione-Sepharose as outlined in Experimental Procedures, subjected to SDS-PAGE and analyzed by immunoblotting with antibodies directed against Hsc70 and Hsp70 (upper lanes), and against Hsp90 (lower lanes). […] After affinity purification samples were analyzed by immunoblotting as described in A, using antibodies directed against the His6-tag. […] Protein bound to Hsp70 was analyzed by affinity purification on Ni-NTA-agarose and immunoblotting with antibodies directed against CD40.

T1 sequence (P25942 20-212): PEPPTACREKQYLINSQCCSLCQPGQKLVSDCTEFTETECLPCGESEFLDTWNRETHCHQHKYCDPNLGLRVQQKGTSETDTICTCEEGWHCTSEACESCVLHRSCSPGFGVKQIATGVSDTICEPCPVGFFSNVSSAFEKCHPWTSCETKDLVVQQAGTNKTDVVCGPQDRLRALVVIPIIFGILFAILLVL
T2 sequence (P25942 21-277): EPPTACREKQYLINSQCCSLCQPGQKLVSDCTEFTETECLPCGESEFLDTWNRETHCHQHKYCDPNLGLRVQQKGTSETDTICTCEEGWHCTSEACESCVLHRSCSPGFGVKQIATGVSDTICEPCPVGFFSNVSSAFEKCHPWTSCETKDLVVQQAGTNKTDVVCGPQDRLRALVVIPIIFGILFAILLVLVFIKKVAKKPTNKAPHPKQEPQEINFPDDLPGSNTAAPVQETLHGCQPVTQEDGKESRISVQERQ

## C70: Recombinant C-terminal peptide-binding domain of human Hsp70, residues 382-641
[1]; ADP, 5-fold molar excess of competitor
  competition for the binding of full-length Hsp70 to CD40: neither the C-terminal Hsp70 domain (C70) nor DnaK had a significant effect on binding
Human CD40 [2]
  uptake of fluorescent (FITC) peptide C into HEK293T-CD40 cells: did not result in a peptide signal above background

## FITC-GCEVFGLGWRSYKH ({FITC}-GCEVFGLGWRSYKH) [reference compound]
Human CD40 [2]
  uptake of fluorescent (FITC) peptide C into HEK293T-CD40 cells: No staining above background

## GCEVFGLGWRSYKH [peptide C, reference compound]
Human CD40 [3]
  binding to CD40-transfected Cos-7 cells: no binding above background
[1]; 5- to 50-fold excess of peptide C (15-150 μM), ADP
  effect of peptide C on binding of Hsp70-ADP to CD40: increased dramatically
[1]; 10-fold molar excess of peptide C
  effect of peptide C on binding of DnaK to CD40: almost completely abolishes the binding of DnaK to CD40
[1]; molar excess of peptide C over Hsp70, ADP
  competition of peptide C with the Hsp70-CD40 interaction: did not compete with the interaction
[1]; titration of peptide C, 3 μM Hsp70, ADP
  ka of the saturable effect of peptide on Hsp70-ADP binding to CD40: ~30 µM
Hsp70
  Kd: 5 to 10 µM

## Hsc70: Endogenous mammalian Hsp70 family member in Hela-cell lysates
[4]
  binding to GST-CD40 from Hela-cell lysates: bound to GST-CD40 in a concentration dependent manner
